These results are taken from publication PMC10630452, “The tumor-enriched small molecule gambogic amide suppresses glioma by targeting WDR1-dependent cytoskeleton remodeling” (Signal Transduction and Targeted Therapy, 2023).

The test system of one data set is subcutaneous glioma PDX. As to the kind of experiment: Subcutaneous PDX model of glioma (GBM1). In kind it is in vivo, nude mice. Here is the method: (§1) Fig. 2 The BBB permeability and tumor suppressor ability of GA-amide compared with TMZ. GA-amide (a) or TMZ (b) concentration in the tumor area and normal brain tissue following a single injection of GA-amide (10 mg/kg, i.v.) or TMZ (10 mg/kg, i.v.). The data are presented as the means ± SEMs (n = 3). c Western blot analysis of the expression of TrkA in mouse tumor tissues (T) and normal brain tissues (N), n = 4. d Western blot analysis of glycosylated TrkA expression in human normal brain tissues (N) and glioma tissues of different grades. e Time curve of GA-amide and TMZ treatment in a cell viability assay (MTS) in T2-4, GSC2 and T12-1 cells. f–h A PDX mouse model was established, and the mice were treated with vehicle (control, n = 9), 2 mg/kg GA-amide (n = 9), 2 mg/kg GAC (n = 9) or […] TMZ (n = 8) by i.p. injection daily for 10 days. A summary photograph is presented in (f), statistical results in (g) and the body weights of mice in (h); the mean ± SEMs are shown. n.s: P ≥ 0.05, *P < 0.05, **P < 0.01 and ***P < 0.001 compared with the control group by one-way ANOVA at each time point
Male nude mice aged 5–6 weeks were selected for establishment of the in vivo glioma mouse models. For the PDX models, the tumor sample will be soaked in HBSS solution on ice and transferred from the hospital to the laboratory. Patient-related information was shown in Supplementary Table 4). For the subcutaneous PDX models, the isometric fresh GBM tumor (GBM1) specimens were implanted s.c. into the flank of a nude mouse. Then, the mice were treated with GA-amide (2 mg/kg i.p.), gambogic acid (2 mg/kg i.p.), TMZ (65 mg/kg i.p., Selleck) or vehicle after the tumors grew to 100 mm^3. The mouse body weights were measured, and tumor volumes were calculated using the formula L × W^2/2. After treatment, the xenografts were harvested and photographed.

The test system of the next data set is GSC2 and U87MG-SLC cells. As to the kind of experiment: Combination of GA-amide with Trk inhibitors, cell viability. Type of data set: cell-based. The settings on record: 48 hours. Here is the method: Supplementary Fig. 5 TrkA was not the functional target for GA-amide to inhibit glioma. a Western blot analyses of the TrkA and p-TrkA expression in GSC2 and U87MG-SLC cells with GA-amide treatment for 4 hours. b Western blot analyses of the p-TrkA expression in GSC2 with GA-amide treatment for different times. c, d The combination effects of GA-amide with GW441756, a TrkA inhibitor, or with K252a, an inhibitor of Trk family in GSC2 (c) and U87MG-SLC (d) (48 hours, n = 3).

Data set [1] is described as follows: BBB permeability assay in U87MG-SLC intracranial xenograft mice. Type of data set: in vivo, mouse. The settings on record: 10 mg/kg i.v., U87MG-SLC intracranial xenograft mice. Here is the method: as §1
Mice bearing U87MG-SLC cell intracranial xenografts were injected with GA-amide (i.v.), and tissues from the brain tumor area and normal brain tissues were collected at different times after injection. […] The diagnostic product ions for GA-amide were detected at m/z 628.3/572.2.

A further data set concerns F-actin. The experiment in a line: F-actin staining and G-actin/F-actin assay in T2-4 cells. As to conditions: 50 nM jas with 0.3 μM GA-amide. Type of data set: cell-based. Here is the method: F-actin isolation was performed according to the instructions of the G-actin/F-actin assay (Cytoskeleton, Inc.). Briefly, cells were lysed in LAS2 buffer (Cytoskeleton, Inc.). The lysates were centrifuged (5 min at 1000 rpm) to pellet undisrupted cells, and then 100 µl of the supernatant was ultracentrifuged at 37 °C (100,000 × g) for 1 h to separate F-actin from soluble G-actin. The F-actin pellet was solubilized by incubation in 100 μL of F-actin depolymerization buffer for 1 h. The soluble F-actin and G-actin fractions were subsequently analyzed by immunoblotting with a mouse monoclonal anti-actin antibody (Cytoskeleton, Inc.).
Representative images of three wells are shown, and the scale bar represents 500 μm. h The apoptosis assay was conducted on T2-4 cells treated with DMSO, GA-amide (0.3 μM), jas (50 nM), and jas (50 nM jas was pretreated for 12 hours) in combination with GA-amide (0.3 μM) for 4 hours. The data were presented as the mean ± SEM (n = 3) and analyzed using one-way ANOVA analysis. Statistical significance is denoted as *P <0.05, **P <0.01, and ***P <0.001.

The mark [2] stands for this setting: 60 mg/kg i.p. daily for 10 days.

For `CC(C)=CCC[C@]1(C)C=Cc2c(O)c3c(c(CC=C(C)C)c2O1)O[C@]12C(=C[C@@H]4C[C@H]1C(C)(C)O[C@@]2(C/C=C(/C)C(=O)O)C4=O)C3=O` [GAC, gambogic acid, reference compound], the “tumor volume versus control” value in the data set with subcutaneous glioma PDX (2 mg/kg i.p. daily for 10 days) was “significantly decreased compared with those in the control group”.
For `Cn1cc(/C=C2\C(=O)Nc3cccnc32)c2ccccc21` [GW441756], the “rescue of the inhibitory effect of GA-amide on GSCs” value with GSC2 and U87MG-SLC cells is “neither the TrkA inhibitor GW441756 nor the Trk family inhibitor K252a[28] restored the inhibitory effect of GA-amide on GSCs”.
The same measure, in the same setting: then `COC(=O)[C@@]1(O)C[C@H]2O[C@]1(C)n1c3ccccc3c3c4c(c5c6ccccc6n2c5c31)C(=O)NC4` [K252a], with “neither the TrkA inhibitor GW441756 nor the Trk family inhibitor K252a[28] restored the inhibitory effect of GA-amide on GSCs”.
Take `Cn1nnc2c(C(N)=O)ncn2c1=O` [TMZ, temozolomide, reference compound]: in the data set with subcutaneous glioma PDX (setting [2]), the “body weight of mice” value is “significantly decreased” and the “tumor volume versus control” value was “significantly decreased compared with those in the control group”. Also, the “concentration in the tumor area versus the nontumor area” value in data set [1] was “no discernible difference in its distribution between these regions”.
Regarding `C/C1=C\[C@H](C)C[C@H](C)OC(=O)C[C@H](c2ccc(O)cc2)NC(=O)[C@@H](Cc2c(Br)[nH]c3ccccc23)N(C)C(=O)[C@H](C)NC(=O)[C@@H](C)C1` [jasplakinolide, reference compound], the “effect of F-actin stabilization on GA-amide induced F-actin depolymerization, invasion inhibition and apoptosis” value in the data set with F-actin was “significantly reversed”.
